What was measured:
[1] = target: T1, Prostaglandin G/H synthase 1 (Rattus norvegicus, UniProt Q63921); type: functional
T1 sequence (Q63921 whole entry): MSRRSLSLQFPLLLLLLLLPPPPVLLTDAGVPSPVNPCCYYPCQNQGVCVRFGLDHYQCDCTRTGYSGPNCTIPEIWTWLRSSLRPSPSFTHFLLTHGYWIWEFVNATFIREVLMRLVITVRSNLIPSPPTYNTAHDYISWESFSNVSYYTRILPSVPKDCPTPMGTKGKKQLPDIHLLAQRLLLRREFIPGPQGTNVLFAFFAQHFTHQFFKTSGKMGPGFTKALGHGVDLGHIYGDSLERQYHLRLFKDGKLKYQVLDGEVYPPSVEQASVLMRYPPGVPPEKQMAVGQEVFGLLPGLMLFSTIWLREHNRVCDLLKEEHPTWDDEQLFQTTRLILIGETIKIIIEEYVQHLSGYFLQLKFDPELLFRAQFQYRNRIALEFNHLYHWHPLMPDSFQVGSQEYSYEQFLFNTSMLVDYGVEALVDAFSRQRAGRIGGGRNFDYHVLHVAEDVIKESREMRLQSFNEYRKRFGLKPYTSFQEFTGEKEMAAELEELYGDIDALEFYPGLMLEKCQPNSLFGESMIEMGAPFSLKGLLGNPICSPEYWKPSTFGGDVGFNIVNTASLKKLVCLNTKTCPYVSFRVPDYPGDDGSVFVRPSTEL

Histamine H3 receptor = Histamine H3 receptor (Homo sapiens, UniProt Q9Y5N1)
Chain of Histamine H3 receptor (Q9Y5N1 whole entry): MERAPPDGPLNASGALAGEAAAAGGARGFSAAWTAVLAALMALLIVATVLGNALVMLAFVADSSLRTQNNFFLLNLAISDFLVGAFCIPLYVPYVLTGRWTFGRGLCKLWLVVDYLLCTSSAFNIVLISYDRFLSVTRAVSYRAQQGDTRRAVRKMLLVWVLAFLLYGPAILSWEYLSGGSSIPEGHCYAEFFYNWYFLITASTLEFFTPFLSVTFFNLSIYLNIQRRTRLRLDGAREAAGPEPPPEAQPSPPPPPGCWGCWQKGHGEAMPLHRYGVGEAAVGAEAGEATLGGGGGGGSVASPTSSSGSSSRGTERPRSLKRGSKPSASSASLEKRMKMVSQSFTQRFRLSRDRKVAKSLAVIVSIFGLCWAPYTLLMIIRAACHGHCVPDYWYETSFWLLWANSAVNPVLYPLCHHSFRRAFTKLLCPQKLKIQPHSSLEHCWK

Thromboxane A2 receptor = target: T2, Thromboxane A2 receptor (Homo sapiens, UniProt P21731)
T2 sequence (P21731 whole entry): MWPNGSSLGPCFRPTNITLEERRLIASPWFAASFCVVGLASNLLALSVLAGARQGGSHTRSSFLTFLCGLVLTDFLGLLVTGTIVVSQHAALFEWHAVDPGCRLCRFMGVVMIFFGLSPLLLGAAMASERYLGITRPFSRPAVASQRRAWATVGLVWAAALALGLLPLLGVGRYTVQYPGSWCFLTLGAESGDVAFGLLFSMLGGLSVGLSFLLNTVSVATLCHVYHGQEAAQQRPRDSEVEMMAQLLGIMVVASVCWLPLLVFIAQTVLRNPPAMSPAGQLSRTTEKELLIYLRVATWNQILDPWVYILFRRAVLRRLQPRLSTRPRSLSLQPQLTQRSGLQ

[2] = target: Gamma-aminobutyric acid receptor subunit alpha-1 (Rattus norvegicus, UniProt P62813)
Chain of Gamma-aminobutyric acid receptor subunit alpha-1 (P62813 whole entry): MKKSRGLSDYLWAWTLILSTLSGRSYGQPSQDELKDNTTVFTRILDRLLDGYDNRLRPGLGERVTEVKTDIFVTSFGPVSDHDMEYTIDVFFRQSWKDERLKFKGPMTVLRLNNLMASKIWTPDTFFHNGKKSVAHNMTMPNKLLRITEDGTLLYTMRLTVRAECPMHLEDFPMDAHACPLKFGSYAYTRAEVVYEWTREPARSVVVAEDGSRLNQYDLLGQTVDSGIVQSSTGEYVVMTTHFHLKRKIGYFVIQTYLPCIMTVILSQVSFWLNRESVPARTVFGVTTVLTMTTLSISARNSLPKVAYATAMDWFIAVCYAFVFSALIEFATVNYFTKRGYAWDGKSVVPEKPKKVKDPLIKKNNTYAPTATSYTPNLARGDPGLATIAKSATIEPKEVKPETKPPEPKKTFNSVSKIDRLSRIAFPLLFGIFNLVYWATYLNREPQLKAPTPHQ

Adenosine receptor A3 = target: T3, Adenosine receptor A3 (Homo sapiens, UniProt P0DMS8)
T3 sequence (P0DMS8 whole entry): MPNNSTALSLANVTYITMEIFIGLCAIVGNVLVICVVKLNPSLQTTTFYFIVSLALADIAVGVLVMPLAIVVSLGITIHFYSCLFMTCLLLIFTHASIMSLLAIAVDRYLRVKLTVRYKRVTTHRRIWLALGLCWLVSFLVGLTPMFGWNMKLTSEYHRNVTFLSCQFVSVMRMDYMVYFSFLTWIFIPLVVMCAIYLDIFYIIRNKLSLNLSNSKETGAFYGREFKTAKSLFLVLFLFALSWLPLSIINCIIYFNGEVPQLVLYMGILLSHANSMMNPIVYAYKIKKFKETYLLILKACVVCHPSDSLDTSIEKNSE

[3] = target: Voltage-gated inwardly rectifying potassium channel KCNH2 (Homo sapiens, UniProt Q12809); type: functional; details: read-out: AC50
Chain of Voltage-gated inwardly rectifying potassium channel KCNH2 (Q12809 whole entry): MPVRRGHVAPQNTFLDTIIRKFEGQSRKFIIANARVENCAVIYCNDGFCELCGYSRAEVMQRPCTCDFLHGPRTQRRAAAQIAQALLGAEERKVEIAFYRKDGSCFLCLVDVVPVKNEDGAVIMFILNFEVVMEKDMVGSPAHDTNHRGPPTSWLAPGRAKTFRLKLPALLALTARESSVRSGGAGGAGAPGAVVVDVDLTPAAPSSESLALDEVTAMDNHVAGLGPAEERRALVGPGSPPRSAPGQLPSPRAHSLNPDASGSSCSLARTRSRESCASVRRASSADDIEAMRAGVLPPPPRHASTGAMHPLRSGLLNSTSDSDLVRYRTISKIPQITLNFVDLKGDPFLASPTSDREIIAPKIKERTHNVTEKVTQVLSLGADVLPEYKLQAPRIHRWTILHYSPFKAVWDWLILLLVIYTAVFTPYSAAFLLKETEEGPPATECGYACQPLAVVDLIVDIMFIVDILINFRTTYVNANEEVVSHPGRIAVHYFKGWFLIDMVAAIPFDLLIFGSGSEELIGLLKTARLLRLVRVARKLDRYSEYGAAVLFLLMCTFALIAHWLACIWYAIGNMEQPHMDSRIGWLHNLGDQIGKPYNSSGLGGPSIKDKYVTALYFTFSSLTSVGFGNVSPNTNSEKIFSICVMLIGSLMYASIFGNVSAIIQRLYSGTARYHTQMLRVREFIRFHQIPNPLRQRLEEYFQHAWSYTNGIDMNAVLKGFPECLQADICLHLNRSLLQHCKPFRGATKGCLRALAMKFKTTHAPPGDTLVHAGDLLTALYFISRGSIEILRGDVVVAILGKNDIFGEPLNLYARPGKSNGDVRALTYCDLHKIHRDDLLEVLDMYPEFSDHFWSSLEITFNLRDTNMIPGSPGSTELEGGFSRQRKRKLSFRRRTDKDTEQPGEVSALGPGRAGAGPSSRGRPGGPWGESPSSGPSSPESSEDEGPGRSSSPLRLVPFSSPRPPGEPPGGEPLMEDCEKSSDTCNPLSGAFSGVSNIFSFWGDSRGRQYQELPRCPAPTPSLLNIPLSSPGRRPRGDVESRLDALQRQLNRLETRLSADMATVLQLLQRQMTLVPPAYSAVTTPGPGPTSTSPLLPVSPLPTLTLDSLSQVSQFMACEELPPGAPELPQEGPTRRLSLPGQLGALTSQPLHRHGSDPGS

[4] = target: Beta-2 adrenergic receptor (Homo sapiens, UniProt P07550)
Chain of Beta-2 adrenergic receptor (P07550 whole entry): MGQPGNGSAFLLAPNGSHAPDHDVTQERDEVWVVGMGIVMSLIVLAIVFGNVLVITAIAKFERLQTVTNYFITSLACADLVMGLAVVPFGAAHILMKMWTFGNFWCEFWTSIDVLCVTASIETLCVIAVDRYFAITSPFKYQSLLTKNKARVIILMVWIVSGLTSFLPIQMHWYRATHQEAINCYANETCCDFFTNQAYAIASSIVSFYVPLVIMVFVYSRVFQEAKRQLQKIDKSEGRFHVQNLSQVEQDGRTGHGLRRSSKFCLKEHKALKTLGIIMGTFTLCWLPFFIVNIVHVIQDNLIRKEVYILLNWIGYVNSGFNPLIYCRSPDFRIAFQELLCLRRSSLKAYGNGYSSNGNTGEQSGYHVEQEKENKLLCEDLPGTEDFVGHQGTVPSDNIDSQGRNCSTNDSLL

Progesterone receptor = target: T4, Progesterone receptor (Homo sapiens, UniProt P06401); type: functional
T4 sequence (P06401 whole entry): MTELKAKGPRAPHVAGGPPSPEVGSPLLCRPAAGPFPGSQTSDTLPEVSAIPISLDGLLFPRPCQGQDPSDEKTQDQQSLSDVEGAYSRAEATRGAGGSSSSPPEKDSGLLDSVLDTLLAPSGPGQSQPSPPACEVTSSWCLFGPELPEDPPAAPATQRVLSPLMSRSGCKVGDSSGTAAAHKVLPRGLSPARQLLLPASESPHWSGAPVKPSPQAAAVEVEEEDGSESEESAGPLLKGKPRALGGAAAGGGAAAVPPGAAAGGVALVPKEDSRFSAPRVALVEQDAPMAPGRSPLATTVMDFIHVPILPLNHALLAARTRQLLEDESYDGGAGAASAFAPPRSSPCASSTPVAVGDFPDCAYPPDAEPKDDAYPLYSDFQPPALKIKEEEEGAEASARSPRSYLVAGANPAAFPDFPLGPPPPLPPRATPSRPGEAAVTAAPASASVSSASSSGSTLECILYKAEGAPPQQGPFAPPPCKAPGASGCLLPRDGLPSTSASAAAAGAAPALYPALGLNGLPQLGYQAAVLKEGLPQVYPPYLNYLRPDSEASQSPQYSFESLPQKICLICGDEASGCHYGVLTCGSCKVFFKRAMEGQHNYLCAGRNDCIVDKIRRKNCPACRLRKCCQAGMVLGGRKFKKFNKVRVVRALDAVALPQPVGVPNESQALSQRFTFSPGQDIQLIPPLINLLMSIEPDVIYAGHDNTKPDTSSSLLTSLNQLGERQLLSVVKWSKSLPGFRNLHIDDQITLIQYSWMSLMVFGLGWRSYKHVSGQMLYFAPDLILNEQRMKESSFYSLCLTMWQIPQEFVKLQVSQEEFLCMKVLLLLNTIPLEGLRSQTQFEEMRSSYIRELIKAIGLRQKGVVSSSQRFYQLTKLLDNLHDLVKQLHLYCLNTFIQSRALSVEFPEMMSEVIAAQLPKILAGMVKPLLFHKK
Further: assay procedure not described here.

| Compound | AC50 [1] | AC50 (Histamine H3 receptor) | AC50 (Thromboxane A2 receptor) | AC50 [2] | AC50 (Adenosine receptor A3) | AC50 [3] | AC50 [4] | AC50 (Progesterone receptor) |
| --- | --- | --- | --- | --- | --- | --- | --- | --- |
| CC(C)CN(C[C@@H](O)[C@H](Cc1ccccc1)NC(=O)O[C@H]1CCOC1)S(=O)(=O)c1ccc(N)cc1 | > 10 µM | > 10 µM | > 30 µM | > 10 µM | > 30 µM | > 30 µM | > 10 µM | > 10 µM |
| CN(Cc1ccc(C(C)(C)C)cc1)Cc1cccc2ccccc12 [BUTENAFINE] | > 10 µM | > 10 µM | > 10 µM | > 10 µM | > 10 µM | 2.8 µM | > 10 µM | > 30 µM |
| CC1CC(OC(=O)C(O)c2ccccc2)CC(C)(C)C1 (stereo unspecified) [CYCLANDELATE] | > 10 µM | > 10 µM | > 10 µM | > 10 µM | > 10 µM | > 30 µM | > 10 µM | > 30 µM |
| OCCN(CCO)c1nc(N2CCCCC2)c2nc(N(CCO)CCO)nc(N3CCCCC3)c2n1 [DIPYRIDAMOLE] | > 30 µM |  | > 30 µM | > 30 µM | 24.7 µM | > 30 µM |  |  |
| CCC1(C)CC(=O)NC1=O (stereo unspecified) [ETHOSUXIMIDE] | > 10 µM |  | > 10 µM | > 10 µM | > 10 µM | > 30 µM | > 10 µM | > 10 µM |
| CC(=O)[C@@]1(O)CC[C@H]2[C@@H]3C[C@H](C)C4=CC(=O)C=C[C@]4(C)[C@@]3(F)[C@@H](O)C[C@@]21C [FLUOROMETHOLONE] | > 10 µM | > 10 µM | > 10 µM | > 10 µM | > 10 µM | > 30 µM | > 10 µM | 0.053 µM |
| N=C(N)NC(=O)Cc1c(Cl)cccc1Cl [GUANFACINE] | > 30 µM |  | > 30 µM | > 30 µM | > 30 µM | > 30 µM | > 10 µM |  |
| CC1Cc2ccccc2N1NC(=O)c1ccc(Cl)c(S(N)(=O)=O)c1 (stereo unspecified) [INDAPAMIDE] | > 30 µM | > 10 µM | > 30 µM | > 10 µM | > 30 µM | > 30 µM | > 10 µM |  |
| CC(=O)N1CCN(c2ccc(OCC3COC(Cn4ccnc4)(c4ccc(Cl)cc4Cl)O3)cc2)CC1 (stereo unspecified) [KETOCONAZOLE] | > 10 µM | > 10 µM | > 10 µM | > 10 µM | 17.7 µM |  | > 10 µM | > 10 µM |
| CN1CCC(=C2c3ccccc3CC(=O)c3sccc32)CC1 [KETOTIFEN] | > 10 µM |  | > 10 µM | > 10 µM | > 10 µM | 1.5 µM | > 10 µM | > 10 µM |
| Nc1cc(N2CCCCC2)nc(N)[n+]1[O-] [MINOXIDIL] | > 30 µM | > 10 µM | > 30 µM | > 10 µM | > 30 µM |  | > 30 µM |  |
| CC(C)(C)NCC(O)COc1cccc2c1CC(O)C(O)C2 (stereo unspecified) [NADOLOL] | > 10 µM | > 10 µM | > 10 µM | > 10 µM | > 10 µM | > 30 µM |  | > 10 µM |
| Nc1ccc(S(=O)(=O)Nc2ncccn2)cc1 [SULFADIAZINE] | > 10 µM | > 10 µM | > 10 µM | > 10 µM | > 10 µM | > 30 µM | > 10 µM | > 10 µM |
| Cc1cccc(Nc2ccncc2S(=O)(=O)NC(=O)NC(C)C)c1 [TORSEMIDE] | > 10 µM |  | 20.8 µM | > 10 µM | > 30 µM | > 30 µM | > 10 µM | > 10 µM |
| CCN(C(C)=O)c1cccc(-c2ccnc3c(C#N)cnn23)c1 [ZALEPLON] | > 30 µM | > 10 µM | > 30 µM |  | > 30 µM | > 30 µM | > 30 µM | > 30 µM |
